Consider 7 compounds from US20230149378A1, “Aminothiolester compounds or pharmaceutically acceptable salts thereof, for use for the treatment of cancer” (ADVANCED BIODESIGN, priority 2015, published 2023).

Data set [1] has as its system DU145 (prostatic cancer line). In words: Alamar blue growth inhibition, cell line DU145. Type of data set: cell-based. Particulars: Homo sapiens, DU-145. On the procedure:
(§1) Cells were seeded into 96-well cell culture plates at concentrations required to ensure approximately 80% confluence in control (untreated cells) at the end of experiment (0.5×10^4-5×10^4 cell/well). The sensitivity towards S-methyl 4-(dimethylamino)-4-methylpent-2-ynethioate was determined using different concentrations of the drug (from 0.01 to 100 μM). After 48 hours, the growth-inhibitory effect of the drug was analyzed using Alamar blue, according to manufactures instructions. The Alamar Blue assay was used based on earlier observations: similar results were found with Alamar blue, tetrazolium reduction (XTT assay). To ensure good data quality and to minimize impact of pipetting errors, each particular drug concentration was assessed based on mean fluorescence intensity from 8 separate wells. The drug response was quantified by the half maximal inhibitory concentration (IC50) for each particular cell line, and determined by non-linear regression analysis of log-dose/response curves. Cut-off value for resistance to S-methyl 4-(dimethylamino)-4-methylpent-2-ynethioate was determined statistically (>2 S.D. above the IC50 geometric mean). The in-vitro threshold value for hypersensitivity to the drug has been defined as <IC50 geometric mean.
(§2) In addition, other compounds according to the invention were tested by following the above mentioned material and method on the cell line DU145 (prostatic cancer line) and the cell line HL60 (leukemia) mentioned in Table 2.

In data set [2] the test system is HL-60 (leukemia). In words: Alamar blue growth inhibition, cell line HL60. The conditions noted are these: Homo sapiens. Type of data set: cell-based. On the procedure: as §1, §2
A general note: Alamar Blue is a resazurin reagent that responds to reducing activity.

Data set [3] has as its system cancer cell lines which overproduce H2O2. In words: Viability assay (resazurin, XTT or MTT) on various cancer cell lines. Type of data set: cell-based, human. The conditions noted are these: FIG. 1. The procedure:
A panel of 52 human tumor cells representing 10 tissue types has been selected to cover a broad set of different oncogenes and according to their response to different standard chemotherapeutics. […]
as §1, with “The Alamar Blue assay was used based on earlier observations: similar results were found with Alamar blue, tetrazolium reduction (XTT assay).” left out, “The in-vitro threshold value for hypersensitivity to the drug has been defined as <IC50 geometric mean.” left out

The test system of data set [4] is resistant cells (MSC). In words: MDA-adducts ELISA, resistant cells. Type of data set: cell-based, human. The conditions noted are these: 5 or 10 μmol·L^−1 during 24 hours, FIG. 10. On the procedure:
(§3) The formation of HNE-adducts and MDA-adducts was quantified with the Oxiselect HNE Adduct Elisa kit (Cell Biolabs, San Diego, Calif.) and the OxiSelect MDA Adduct ELISA Kit (Cell Biolabs), respectively. Briefly, after a treatment with S-methyl 4-(dimethylamino)-4-methylpent-2-ynethioate during 24 hours, cells were lysed by sonication in reducing SDS Sample Buffer. Homogenates were diluted to 10 μg protein/mL and adsorbed in 96-well protein binding plates by incubation at 37° C. for at least 2 hours. Wells were washed twice with PBS and incubated for an additional 2 hours at room temperature on an orbital shaker. Following three washes in PBS, 100 μL of anti-HNE antibody or anti-MDA antibody were added to the wells and incubated for 1 hour at room temperature. Subsequently, goat anti-rabbit secondary antibody-HRP conjugate (diluted 1/1000 with the assay diluent) was added and incubation continued for 1 hour. Wells were washed five times in PBS and HRP-substrate was added. Reaction was stopped with an acidic solution, and absorbance read on a microplate reader at 450 nm. The level of HNE-adducts and of MDA-adducts was determined by comparison with a standard curve prepared from HNE-BSA and MDA-BSA standards supplied by the manufacturer. […]
A general note: An ELISA detects its analyte on a solid surface through an enzyme-linked reagent.

Data set [5] concerns sensitive cells (HL-60, NT2/D1). In words: HNE-adducts ELISA, sensitive cells. The conditions noted are these: 5 or 10 μmol·L^−1 during 24 hours, FIG. 10. Type of data set: cell-based, human. On the procedure:
as §3

Data set [6] has as its system hMCSs-BM (Human mesenchymal stem cells from bone marrow). In words: Alamar blue growth inhibition, normal human primary cells. Particulars: 48 hours. Type of data set: cell-based. The procedure:
as §1
(§4) In addition, to control the selectivity of the S-methyl 4-(dimethylamino)-4-methylpent-2-ynethioate toward cancer cells, the compound according to the invention was also tested on normal cells by using the same method as the one described above.

Data set [7] deals with NHEM (Normal Human epidermal melanocytes). Described as above. Type of data set: cell-based. The conditions noted are these: Melanocyte, 48 hours. The procedure:
as §1, §4

Data set [8] deals with BEAS-2B (Human bronchial epithelial cells). Described as above. Type of data set: cell-based. Particulars: 48 hours. On the procedure:
as §1, §4

Data set [9] deals with huvec (Human umbilical vein endothelial cells). The data set is described as above. Type of data set: cell-based. Particulars: 48 hours. On the procedure: as §1, §4
The subject of data set [10] is HPF (Human Pulmonary fibroblasts). The data set is described as above. Type of data set: cell-based. Particulars: Pulmonary fibroblast, 48 hours. On the procedure:
as §1, §4

Data set [11] deals with normal cells. In words: Selectivity control on normal cells. Type of data set: cell-based, human. The conditions noted are these: same method as cancer cells. The procedure:
as §1, with “mean. […]” for “mean.”

Data set [12] has as its system Colo357 cells. In words: Viability of Colo357 cells treated with BCNU. Type of data set: cell-based. Particulars: Colo357 cells treated with 100 μM carmustine (BCNU); FIG. 8(B).
Data set [13] concerns sensitive cells (HL-60, NT2/D1). In words: MDA-adducts ELISA, sensitive cells. Type of data set: cell-based, human. The conditions noted are these: 5 or 10 μmol·L^−1 during 24 hours, FIG. 10. On the procedure: as §3
The subject of data set [14] is HL60 cancers cells. In words: Measurement of H2O2 production (Total ROS/superoxide detection kit). Type of data set: cell-based, human. The conditions noted are these: FIG. 6(A). The procedure:
Intracellular H2O2 production in live cells was measured using Total ROS/superoxide detection kit (Enzo life science), following the manufacturer's instructions. The assay uses specific H2O2/RNS probes that upon reaction with H2O2 and RNS species were oxidized rapidly to highly fluorescent compounds. Fluorescence intensity is proportional to the total H2O2/RNS levels within the sample. […] The day before the analysis, cells were seeded in 96-well black/clear bottom plates at a density of 2×10^4 in culture media according to cell suppliers instructions, supplemented with FBS (10% v/v), 10 units of penicillin/mi and […] of streptomycin. Cells were kept at 37° C. in a humid atmosphere of 95% air: 5% CO2 overnight. On the day of the analysis, cells media was replaced by 100 μL of phenol free-media supplemented as above, without any treatment, with S-methyl 4-(dimethylamino)-4-methylpent-2-ynethioate for 6 hours, vehicle HEPES for 6 hours, or with NAC for 20 min. […] Several wells were left without cells for the background fluorescence control measurements. Plates were read using fluorescence microplate reader (ex=560 nm, Em=600). Data were expressed as the change in arbitrary fluorescence units produced from equal amounts of cells and normalized to total protein input.

Data set [15] relates to resistant cells (MSC). In words: HNE-adducts ELISA, resistant cells. Type of data set: cell-based, human. Particulars: 5 or 10 μmol·L^−1 during 24 hours, FIG. 10. The procedure: as §3
Data set [16] relates to HL-60 cells. In words: Viability of HL-60 cells with NAC or GSH-MEE (induction of resistance). Type of data set: cell-based. On the procedure: To revert S-methyl 4-(dimethylamino)-4-methylpent-2-ynethioate-induced cell death, drug sensitive cells HL-60 were exposed to S-methyl 4-(dimethylamino)-4-methylpent-2-ynethioate (10 μM) in the presence of the reduced glutathione analog Glutathione Monoethyl Ester (GSH-MEE) at concentrations 10 mM or S-methyl 4-(dimethylamino)-4-methylpent ynethioate in combination. HL-60 were seeded, into 96-wells plate, at a concentration of 5×10^4 cells/well in 100 μL of complemented medium supplemented with Glutathione Monoethyl Ester (GSH-MEE) 10 mM. After 90 minutes incubation, cells were washed with PBS and cells were incubated using different concentrations of the drug (from 0.01 to 100 μM). After 24 h and 48 h cell viability was measure using the Rezasurin assay as described above.

The test system of data set [17] is Colo357 cells. In words: Measurement of GSH level (GSH-Glo). Type of data set: cell-based. The conditions noted are these: 100 μM, FIG. 8(A). The procedure: (§5) Cells were seeded in 96-well black walled plate (5×10^4 cells/mL) and incubated overnight for attachment. The cells were treated either with vehicle, DMSO, BCNU 100 μM, S-methyl 4-(dimethylamino)-4-methylpent-2-ynethioate 20 μM, for 24 hours. The total glutathione was measured according to the instructions of the kit (GSH-Glo™, Promega) and results were obtained for 25 000 cells.

Data set [18] concerns HL-60 cells. In words: Measurement of GSH level (GSH-Glo). Type of data set: cell-based, human. The conditions noted are these: HL-60 cells treated with 2.5 mM NAC; FIG. 6(B). The procedure: as §5
The conditions of data set [19]: Aruoma et al 1989; cited from earlier work.
The conditions of data set [20]: Aruoma et al 1989; cited from earlier work. The source holds these as a separate data set.

The IC50 is the concentration at which inhibition is half-maximal. Higher therefore signals weaker potency in that assay.

Take `CSC(=O)C#CC(C)(C)N1CCCCC1` [S-methyl 4-methyl-4-(piperidin-1-yl)pent-2-ynethioate]: the half-maximal inhibitory concentration (IC50) in data set [1] was determined as 22 µM; in data set [2], 7.21 µM.
In the same order, the values of `CSC(=O)C#CC(C)(C)N1CCOCC1` [S-methyl 4-methyl-4-(morpholin-4-yl)pent-2-ynethioate] are 9.3 µM and 30 µM.
Take `CSC(=O)C#CC(C)(C)N(C)Cc1ccccc1` [S-methyl 4-[benzyl(methyl)amino]-4-methylpent-2-ynethioate]: the IC50 in data set [1] worked out at 1.4 µM; in data set [2], 10.4 µM.
With `CSC(=O)C#CC(C)(C)N(C)C` [S-methyl 4-(dimethylamino)-4-methylpent-2-ynethioate], the “efficacy in cancer cell lines (viability assay)” value in [3] was “effective”. In addition, the MDA-adducts level in data set [4] was < 100 ng per μg of total protein; in data set [13], “above 100 ng per μg of total protein”. Also, the HNE-adducts level in data set [5] was > 1 μg per μg of total protein; in [15], < 1 μg per μg of total protein. The IC50 is 7.2 µM in data set [1]; 7.6 µM in data set [2]; above 50 µM in data set [6]; above 100 µM in data set [7]; above 50 µM in data set [8]; above 50 µM in [9]. Also, the IC50 in data set [10] is above 100 µM. Besides, the “effect on normal cells” value in data set [11] was “no effect”. This compound also displayed a decrease of viability in data set [12] of 50%. Besides, the “H2O2 activity level in Relative Fluorescence Unit (RFU)” value in [14] (HL60, 5 μM for 24 hours) is “increased”; in data set [14] (HL60, treatment in addition with 2.5 mM N-acetyl-Cysteine (NAC)) it was “no H2O2 increase”. The “viability of HL-60 cells” value in data set [16] (5, 10 μmol·L-1 and 2.5 mM NAC, FIG. 6(C)) is reported as “inhibition of efficacy”. Further, the “cytotoxic effect on HL-60 cells” value in data set [16] (after pre-treatment of 10 mM GSH-MEE, FIG. 7) is recorded as “no more effective”.
Regarding `CSC(=O)C#CC(C)(C)N(C)c1ccccc1` [S-methyl 4-methyl-4-[methyl(phenyl)amino]pent-2-ynethioate], the IC50 in data set [1] was determined as 12.5 µM; in data set [2], 24.8 µM.
With `O=NN(CCCl)C(=O)NCCCl` [carmustine], in data set [17], the “decrease of the GSH level” value turned out to be 50%.
Regarding `CC(=O)N[C@@H](CS)C(=O)O` [NAC, N-acetyl-L-cysteine], the “amount of GSH level” value in [18] is given as “significantly increased”. For the same compound, in [19], the “rate constant, scavenging of hydroxy radicals” value is 1.36×10^10 M^−1,s^−1. In addition, the “rate constant, reaction with hydrogen peroxide” value in [20] is reported as 0.38 M^−1, s^−1.
